Here are results for one compound from patent publication US11180474B2 (BRISTOL-MYERS SQUIBB COMPANY, priority 2016, dated 2021).

Test [1] concerns Imiquimod-induced psoriasis. Nature of the test: Imiquimod induced psoriasis in mice. The format is in vivo, mouse. The note with it: male C57BL/6 mice, vs vehicle control. Here is the method: Imiquimod Induced Psoriasis:
Male C57BL/6 mice of 8-9 week age were used to evaluate the impact of TLR7/8/9 inhibitors on Imiquimod-induced psoriasis. Mice (7 to 10 per group) were randomized into different treatment groups based on body weight. Mice from the respective treatment groups were treated orally, once daily for 6 days with vehicle or test compound. Psoriasis was induced by application of imiquimod cream on the shaved back region of the mice everyday for 6 days. Disease severity was monitored daily by recording of skin thickness, erythema and scaling. A cumulative disease score was also calculated to reflect the impact on the overall severity of inflammation in this model. At the end of experiment, all mice were euthanized by CO2 asphyxiation and skin samples were subjected for histology. At the end of experiment, one way ANOVA with Dunnett's test was performed to calculate the significance of test compound treated group vs. vehicle control group. Overall percent reduction in imiquimod induced psoriasis was calculated for test compound treated group vs vehicle control group.

The test system of another test is TLR7. Nature of the test: In vivo mouse TLR7 PD model (gardiquimod challenge, plasma IL-6). To be noted: oral. The protocol: In Vivo Mouse TLR7 and TLR9 PD Model:
Adult male C57BL/6 mice were used for the experiments. Mice (7 to 10 per group) were randomized into different treatment groups based on body weight. Mice from the respective treatment groups were administered orally with vehicle or test compound. Thirty min after the oral administration of vehicle or test compound, mice were challenged with intraperitoneal injection of gardiquimod for TLR7 PD model and CpG-ODN for TLR9 PD model. Ninety minutes after gardiquimod injection and 120 minutes after CpG-ODN injection, mice were bled under isoflurane anaesthesia and plasma IL-6 level was estimated by using commercially available ELISA kit (BD Biosciences). At the end of experiment, mean cytokine data was plotted and one way ANOVA with Dunnett's test was performed to calculate the significance of test compound treated group vs. vehicle control group. Percent inhibition of cytokine induction was calculated for test compound treated group vs vehicle control group.

Setting [2] is: 0.1 mg/kg orally once daily for 6 days.
[3] abbreviates: 1 mg/kg orally once daily for 6 days.
Setting [4] is: 10 mg/kg orally once daily for 6 days.
The mark [5] stands for this setting: 30 mg/kg orally once daily for 6 days.

In the case of `COc1ccc(-c2[nH]c3ccc(C4CCN(C(=O)CN(C)C)CC4)cc3c2C(C)C)cc1OC` [Example 209, 1-(4-(2-(3,4-dimethoxyphenyl)-3-isopropyl-1H-indol-5-yl)piperidin-1-yl)-2-(dimethylamino)ethan-1-one], the “% inhibition Cumulative score” value in test [1] (setting [2]) is given as 3%; in test [1] (setting [3]) it was 27%; in test [1] (setting [4]), 40%; in test [1] (setting [5]), 49%. Moreover, the “% inhibition Erythema” value in test [1] (setting [2]) was 3%; in test [1] (setting [3]), 26%; in test [1] (setting [4]), 41%; in test [1] (setting [5]) it was 53%. In addition, the “% inhibition Scaling” value in test [1] (setting [2]) turned out to be 13%; in test [1] (setting [3]), 38%; in test [1] (setting [4]), 50%; in test [1] (setting [5]) it was 63%. In addition, the “% inhibition Skin Thickness” value was determined as 0% in test [1] (setting [2]), 18% in test [1] (setting [3]), 29% in test [1] (setting [4]) and 32% in test [1] (setting [5]). Further, the “% inhibition of IL6” value in the test with TLR7 (dose 0.001 mg/kg) is on record as 11%; in the test with TLR7 (dose 0.01 mg/kg), 21%; in the test on TLR7 (dose 0.1 mg/kg), 61%; in the test with TLR7 (dose 1 mg/kg) it was 86%.
